Columns and labels:
[1] = tested on: FFRP pot1216151; assay: Gel filtration analysis of changes in assemblies of the FFRP induced by amino acids and metabolic intermediates; assay type: binding, Pyrococcus sp. OT3; conditions: for gel filtration peak that increased: FFRP monomer approximately 100 μM, at least 30 minutes at room temperature, UV 220 nm; for concluded effect on assembling of the protein: gel filtration
Method: Changes in assemblies of the FFRP pot1216151 induced by interaction with amino acids and metabolic intermediates were analyzed in solution using gel filtration.
Gel filtration was carried out at a flow rate 1 ml/min, using a matrix (Protein Pak 125, 7.8×300 mm, Waters) and a 50 mM Tris-HCl buffer (pH 7.0) containing 300 mM sodium chloride. Flow of the protein was monitored by measuring the UV absorbance at 220 nm (LC Module I plus system, Waters). The FFRP pot1216151 purified by method 2, i.e., the rigorous method, was dissolved in 50 mM Tris-HCl buffer (pH 7.0) containing 200 mM sodium chloride, and kept at −80° C. until it was diluted by 10-fold with a 50 mM Tris-HCl buffer (pH 7.0) containing 300 mM sodium chloride, and mixed with each potential ligand for at least 30 minutes at room temperature (about 25° C.). In the mixture, the monomer concentration of the FFRP was approximately 100 μM.

[2] = tested on: FFRP (pot1216151); assay: Changes in crystal structure (depolarization) of FFRP crystals soaked in amino acid solutions; assay type: binding, Pyrococcus sp. OT3; conditions: crystals soaked in solution of one amino acid, 10 mM
Method: It has been known that the regularity inside a crystal might be affected, if the structure of the protein changes upon interaction with a ligand which is incorporated from outside the crystal, thereby depolarizing the crystal. Crystals of the FFRP (pot1216151) were soaked into solutions, each containing one of twenty amino acids at the same concentration 10 mM. […] With the other amino acids, no change was observed.

[3] = target: E. coli Lrp (Escherichia coli, UniProt P0ACJ0); conditions: Marasco et al., 1994; cited from earlier work
Chain of E. coli Lrp (P0ACJ0 2-164): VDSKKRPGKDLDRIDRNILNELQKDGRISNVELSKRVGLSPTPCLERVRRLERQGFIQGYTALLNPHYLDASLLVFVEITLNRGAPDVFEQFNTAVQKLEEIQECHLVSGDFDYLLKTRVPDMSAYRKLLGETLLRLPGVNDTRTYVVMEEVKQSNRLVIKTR

SMILES | gel filtration peak that increased ([1]; metabolic intermediate 10 mM) | gel filtration peak that increased ([1]; amino acid 1 mM) | concluded effect on assembling of the protein ([1]; amino acid 1 mM) | change of the FFRP crystal (depolarization) on soaking [2] | effect of leucine on the FFRP assembly [3] | concluded effect on assembling of the protein ([1]; metabolic intermediate 10 mM)
O=C(O)C(O)COP(=O)(O)O (stereo not drawn) [3-phosphoglyceric acid] | no significant effect |  |  |  |  | 
C[C@H](N)C(=O)O [alanine] |  | the fourth peak increased | accelerate disassembling of the protein |  |  | 
N=C(N)NCCC[C@H](N)C(=O)O [arginine] |  | the fourth peak increased | accelerate disassembling of the protein |  |  | 
CC[C@H](C)[C@H](N)C(=O)O [isoleucine] |  | the second peak increased | accelerates assembling of the protein | the crystals depolarized after several hours |  | 
CC(C)C[C@H](N)C(=O)O [leucine] |  | the fourth peak increased | accelerate disassembling of the protein | the crystals depolarized after several hours | disassembling these FFRPs | 
O=C(O)CC(O)C(=O)O (stereo not drawn) [malic acid] | the third peak increased |  |  |  |  | stabilizing intermediate assemblies
CSCC[C@H](N)C(=O)O [methionine] |  | the fourth peak increased | accelerate disassembling of the protein | the crystals depolarized after several hours |  | 
O=C(O)CC(=O)C(=O)O [oxaloacetic acid] | the third peak increased |  |  |  |  | stabilizing intermediate assemblies
N[C@@H](Cc1ccccc1)C(=O)O [phenylalanine] |  | the fourth peak increased | accelerate disassembling of the protein |  |  | 
CC(=O)C(=O)O [pyruvic acid] | no significant effect |  |  |  |  | 
C[C@@H](O)[C@H](N)C(=O)O [threonine] |  | the fourth peak increased | accelerate disassembling of the protein |  |  | 
CC(C)[C@H](N)C(=O)O [valine] |  | the third peak increased | stabilizing intermediate assemblies | the crystals depolarized after several hours |  | 
